Laboratory results as given in ChEMBL document CHEMBL4765331, “Amides of pyrrole- and thiophene-fused anthraquinone derivatives: A role of the heterocyclic core in antitumor properties” (Eur J Med Chem, 2020).
The source made the active and inactive calls. No cut-off for these calls is given here.

Assays:
[1] = tested on: CAPAN-1; assay: Antiproliferative activity against human CAPAN-1 cells assessed as inhibition of cell proliferation measured after 72 hrs by MTT assay; format: functional, cell-based; settings: CAPAN-1, 72 h
[2] = tested on: HCT-116; assay: Antiproliferative activity against human HCT-116 cells assessed as inhibition of cell proliferation measured after 72 hrs by MTT assay; format: functional, cell-based; settings: HCT-116, 72 h
[3] = tested on: NCI-H460; assay: Antiproliferative activity against human NCI-H460 cells assessed as inhibition of cell proliferation measured after 72 hrs by MTT assay; format: functional, cell-based; settings: NCI-H460, 72 h
[4] = tested on: HL-60; assay: Antiproliferative activity against human HL-60 cells assessed as inhibition of cell proliferation measured after 72 hrs by MTT assay; format: functional, cell-based; settings: HL-60, 72 h
[5] = tested on: K562; assay: Antiproliferative activity against human K562 cells assessed as inhibition of cell proliferation measured after 72 hrs by MTT assay; format: functional, cell-based; settings: K562, 72 h
[6] = Antiproliferative activity against P-gp-positive/doxorubicin-resistant human K562/4 cells assessed as inhibition of cell proliferation measured after 72 hrs by MTT assay; format: functional; settings: K562/4, 72 h
[7] = tested on: HCT-116; assay: Antiproliferative activity against human HCT-116 cells with inactivated p53 gene assessed as inhibition of cell proliferation measured after 72 hrs by MTT assay; format: functional, cell-based; settings: HCT-116, 72 h
[8] = tested on: TERT-RPE1; assay: Cytotoxicity against human TERT-RPE1 cells assessed as inhibition of cell proliferation measured after 72 hrs by MTT assay; format: cell-based; settings: RPE-1, 72 h
[9] = Selectivity index, ratio of IC50 for human TERT-RPE1 cells to IC50 for human CAPAN-1 cells
[10] = Resistance index, ratio of IC50 for human P-gp-positive/Doxorubicin-resistant K562/4 cells to IC50 for human K562 cells; format: functional
[11] = tested on: Calf thymus DNA; assay: Binding affinity to calf thymus double stranded DNA at 10 uM measured after 5 mins by flourescence spectroscopy method; settings: Bos taurus
[12] = tested on: Calf thymus DNA; assay: Binding affinity to calf thymus DNA assessed as DNA intercalation by measuring decrease of negative DNA band at 245 nm at 50 uM by circular dichroism spectral analysis; format: tissue-based; settings: Bos taurus
[13] = tested on: Calf thymus DNA; assay: Binding affinity to calf thymus DNA assessed as binding constant by scatchard plot analysis; settings: Bos taurus
[14] = tested on: Calf thymus DNA; assay: Binding affinity to calf thymus DNA assessed as dissociation constant by scatchard plot analysis; parameters: species or system Bos taurus
[15] = tested on: Calf thymus DNA; assay: Binding affinity to calf thymus DNA assessed as stoichiometry ratio of compound-DNA complex formation by scatchard plot analysis; settings: Bos taurus
[16] = biological target: T1, DNA topoisomerase 1 (Homo sapiens) (UniProt P11387); assay: Inhibition of human topoisomerase 1-mediated relaxation of supercoiled plasmid using pBR322 plasmid as substrate at 40 uM measured after 30 mins by ethidium bromide dye based agarose gel electrophoresis method
T1 sequence (whole entry): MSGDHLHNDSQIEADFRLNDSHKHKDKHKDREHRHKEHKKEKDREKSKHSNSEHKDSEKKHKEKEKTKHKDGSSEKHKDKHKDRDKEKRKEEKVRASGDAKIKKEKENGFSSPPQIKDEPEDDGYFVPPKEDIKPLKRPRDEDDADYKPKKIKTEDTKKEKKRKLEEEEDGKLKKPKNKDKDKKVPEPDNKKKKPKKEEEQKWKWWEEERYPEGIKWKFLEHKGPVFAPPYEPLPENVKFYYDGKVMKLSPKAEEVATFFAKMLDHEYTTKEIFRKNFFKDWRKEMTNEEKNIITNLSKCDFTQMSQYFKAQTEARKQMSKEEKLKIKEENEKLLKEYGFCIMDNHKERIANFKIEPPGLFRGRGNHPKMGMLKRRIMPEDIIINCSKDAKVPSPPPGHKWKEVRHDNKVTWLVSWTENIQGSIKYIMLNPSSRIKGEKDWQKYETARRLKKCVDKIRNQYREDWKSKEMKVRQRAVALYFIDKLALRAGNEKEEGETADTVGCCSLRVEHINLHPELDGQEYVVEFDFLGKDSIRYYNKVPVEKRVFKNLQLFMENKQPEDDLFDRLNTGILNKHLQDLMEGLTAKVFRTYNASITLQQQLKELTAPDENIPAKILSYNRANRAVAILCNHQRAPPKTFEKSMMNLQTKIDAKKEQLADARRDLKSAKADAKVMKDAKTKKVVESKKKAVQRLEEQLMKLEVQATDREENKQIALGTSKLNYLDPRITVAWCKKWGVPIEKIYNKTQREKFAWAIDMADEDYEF

[17] = Drug uptake in mouse NIH3T3 cells assessed as compound localization in nucleus at 1 uM measured after 15 mins by laser scanning microscope; format: ADME, subcellular; settings: nih3t3, 0.25 h
[18] = Drug uptake in mouse NIH3T3 cells assessed as compound localization in mitochondria at 1 uM measured after 15 mins by Mitotracker Green FM dye based laser scanning microscope; format: ADME; settings: nih3t3, 0.25 h
[19] = Drug uptake in mouse NIH3T3 cells assessed as compound localization in cytoplasm at 1 uM measured after 15 mins by laser scanning microscope; format: ADME, subcellular; settings: nih3t3, 0.25 h
[20] = tested on: K562; assay: Induction of apoptosis in human K562 cells assessed as viable cells at 3.2 uM measured after 24 hrs by Annexin V-APC/PI staining based flow cytometry assay (reference value: 85.9%); format: functional; settings: read-out: Activity
[21] = tested on: K562; assay: Induction of apoptosis in human K562 cells assessed as viable cells at 3.2 uM measured after 48 hrs by Annexin V-APC/PI staining based flow cytometry assay (reference value: 85.9%); format: functional; settings: read-out: Activity
[22] = tested on: K562; assay: Induction of apoptosis in human K562 cells assessed as early apoptotic cells at 3.2 uM measured after 24 hrs by Annexin V-APC/PI staining based flow cytometry assay (reference value: 3.4%); format: functional
[23] = tested on: K562; assay: Induction of apoptosis in human K562 cells assessed as early apoptotic cells at 3.2 uM measured after 48 hrs by Annexin V-APC/PI staining based flow cytometry assay (reference value: 3.4%); format: functional
[24] = tested on: K562; assay: Induction of apoptosis in human K562 cells assessed as late apoptotic cells at 3.2 uM measured after 24 hrs by Annexin V-APC/PI staining based flow cytometry assay (reference value: […]); format: functional
[25] = tested on: K562; assay: Induction of apoptosis in human K562 cells assessed as late apoptotic cells at 3.2 uM measured after 48 hrs by Annexin V-APC/PI staining based flow cytometry assay (reference value: […]); format: functional
[26] = tested on: K562; assay: Induction of apoptosis in human K562 cells assessed as necrotic cells at 3.2 uM measured after 24 hrs by Annexin V-APC/PI staining based flow cytometry assay (reference value: 3.9%); format: functional
[27] = tested on: K562; assay: Induction of apoptosis in human K562 cells assessed as necrotic cells at 3.2 uM measured after 48 hrs by Annexin V-APC/PI staining based flow cytometry assay (reference value: 3.9%); format: functional
[28] = tested on: K562; assay: Induction of oxidative stress in human K562 cells assessed as increase in intracellular ROS generation at 3.2 uM measured after 40 mins by Deep Red dye based flow cytometry method; format: functional, cell-based
[29] = Selectivity index, ratio of IC50 for human TERT-RPE1 cells to IC50 for human HCT-116 cells; format: toxicity; settings: TERT-RPE1 cells and HCT-116 cells, read-out: Ratio IC50
[30] = Selectivity index, ratio of IC50 for human TERT-RPE1 cells to IC50 for human NCI-H460 cells; format: toxicity; settings: TERT-RPE1 cells and NCI-H460 cells, read-out: Ratio IC50
[31] = Selectivity index, ratio of IC50 for human TERT-RPE1 cells to IC50 for human HL-60 cells; format: toxicity; settings: TERT-RPE1 cells and HL-60 cells, read-out: Ratio IC50
[32] = Selectivity index, ratio of IC50 for human TERT-RPE1 cells to IC50 for human K562 cells; format: toxicity; settings: TERT-RPE1 cells and K562 cells, read-out: Ratio IC50
[33] = Drug uptake in P-gp-positive/doxorubicin-resistant human K562/4 cells; format: ADME
[34] = Drug uptake in human K562i/S9 cells harboring exogenously expressed MDR1/Pgp; format: ADME, cell-based
[35] = tested on: K562; assay: Induction of cell cycle arrest in human K562 cells assessed as accumulation at G2/M phase at 2XIC50 measured after 24 hrs by propidium iodide/RNase staining based flow cytometry; format: functional
[36] = tested on: K562; assay: Induction of cell cycle arrest in human K562 cells assessed as accumulation at G2/M phase at 2XIC50 measured after 48 hrs by propidium iodide/RNase staining based flow cytometry; format: functional
[37] = tested on: K562; assay: Induction of cell cycle arrest in human K562 cells assessed as accumulation at subG1 phase at 2XIC50 measured after 24 hrs by propidium iodide/RNase staining based flow cytometry; format: functional
[38] = tested on: K562; assay: Induction of apoptosis in human K562 cells assessed as viable cells at 1.6 uM measured after 24 hrs by Annexin V-APC/PI staining based flow cytometry assay (reference value: 85.9%); format: functional; settings: read-out: Activity
[39] = tested on: K562; assay: Induction of apoptosis in human K562 cells assessed as viable cells at 1.6 uM measured after 48 hrs by Annexin V-APC/PI staining based flow cytometry assay (reference value: 85.9%); format: functional; settings: read-out: Activity
[40] = tested on: K562; assay: Induction of apoptosis in human K562 cells assessed as early apoptotic cells at 1.6 uM measured after 24 hrs by Annexin V-APC/PI staining based flow cytometry assay (reference value: 3.4%); format: functional
[41] = tested on: K562; assay: Induction of apoptosis in human K562 cells assessed as early apoptotic cells at 1.6 uM measured after 48 hrs by Annexin V-APC/PI staining based flow cytometry assay (reference value: 3.4%); format: functional
[42] = tested on: K562; assay: Induction of apoptosis in human K562 cells assessed as late apoptotic cells at 1.6 uM measured after 24 hrs by Annexin V-APC/PI staining based flow cytometry assay (reference value: […]); format: functional
[43] = tested on: K562; assay: Induction of apoptosis in human K562 cells assessed as late apoptotic cells at 1.6 uM measured after 48 hrs by Annexin V-APC/PI staining based flow cytometry assay (reference value: […]); format: functional
[44] = tested on: K562; assay: Induction of apoptosis in human K562 cells assessed as necrotic cells at 1.6 uM measured after 24 hrs by Annexin V-APC/PI staining based flow cytometry assay (reference value: 3.9%); format: functional
[45] = tested on: K562; assay: Induction of apoptosis in human K562 cells assessed as necrotic cells at 1.6 uM measured after 48 hrs by Annexin V-APC/PI staining based flow cytometry assay (reference value: 3.9%); format: functional
[46] = tested on: K562; assay: Induction of oxidative stress in human K562 cells assessed as increase in intracellular ROS generation at 1.6 uM measured after 40 mins by Deep Red dye based flow cytometry method; format: functional, cell-based
[47] = Toxicity in ip dosed BDF1 mouse xenografted with mouse P388 cells administered qd for 5 days; format: organism-based; settings: in vivo, time 5 day

| SMILES | IC50 [1] [nM] | IC50 [2] [nM] | IC50 [3] [nM] | IC50 [4] [µM] | IC50 [5] [nM] | IC50 [6] [nM] | IC50 [7] [nM] | IC50 [8] [µM] | Ratio IC50 [9] | Ratio IC50 [10] | Activity [11] | Activity [12] | Kb [13] | Kd [14] [µM] | Ratio [15] | inhibition [16] | selectivity ratio [29] | selectivity ratio [30] | selectivity ratio [31] | selectivity ratio [32] | also measured |
| --- | --- | --- | --- | --- | --- | --- | --- | --- | --- | --- | --- | --- | --- | --- | --- | --- | --- | --- | --- | --- | --- |
| N[C@H]1CCN(C(=O)c2csc3c(O)c4c(c(O)c23)C(=O)c2ccccc2C4=O)C1 | 2100 | 1800 | 2100 | 5.5 | 1600 | 4300 | 2200 | 12.9 | 2 | 2.7 | Active | Active | 2 10^5/M | 5 | 2 | Active | 2 | 2 | 2 | 2 | Drug uptake [17]: Active; Drug uptake [18]: Active; Drug uptake [19]: Active; viability at 3.2 µM [20]: 71.2%; viability at 3.2 µM [21]: 54.1%; Activity [22]: 0.8%; Activity [23]: 0.9%; Activity [24]: 6.7%; Activity [25]: 9.9%; Activity [26]: 21.3%; Activity [27]: 35.1%; Activity [28]: Active; Drug uptake [33]: Active; Drug uptake [34]: Active; Activity [35]: Active; Activity [36]: Active; Activity [37]: Active |
| N[C@H]1CCN(C(=O)c2coc3c(O)c4c(c(O)c23)C(=O)c2ccccc2C4=O)C1 | 300 | 1200 | 400 | 0.5 | 900 | 1400 | 1300 | 11.1 | 9 | 1.5 | Active | Active | 0.9 10^5/M | 11 | 2 | Active | 9 | 9 | 9 | 9 | viability at 1.6 µM [38]: 70%; viability at 1.6 µM [39]: 51.9%; Activity [40]: 1.3%; Activity [41]: 0.5%; Activity [42]: 8.1%; Activity [43]: 9.1%; Activity [44]: 20.6%; Activity [45]: 38.6%; Activity [46]: Active; LD50 at 120 h [47]: 52 mg/kg; Drug uptake [33]: Active; Drug uptake [34]: Active; Activity [36]: Active |
